{"source": "patent US7029879B1", "about": "“Iodine uptake restoration in thyroid cancer” (University of Kentucky Research Foundation, priority 1999, dated 2006); for Methylation Status by Region P: key: mRNA expression (hNIS, TTF-1, Pax-8): +, positive; −, negative", "key": {"[1]": {"test_system": "NPA'87 cells (papillary carcinoma)", "experiment": "Iodide uptake assay (specific 125I uptake), NPA'87", "assay_type": "cell-based, human", "details": "for Specific ^125I Uptake: NPA'87", "procedure": "(§1) Cell lines, for evaluation of iodide-uptake and hNIS expression, were grown in phenol-red-free RPMI 1640 with 5% fetal bovine serum (FBS), 100 nM sodium selenite and 0.1 nM bovine TSH (basal medium) (20). They were plated at a density of 3–5×10^4 cells/9.4 cm^2, in triplicate in basal medium, and grown for 2–3 days at 37° C. in 5% CO2. They were treated with dimethylsulfoxide (DMSO, 25 μM daily for 3 days), sodium butyrate (0.5 or 1.0 mM), phenylacetate (pH 7.0, 5 or 10 mM) or 5-azacytidine (0.5 or 1.0 μM, in 25 μM DMSO, daily for 3 days) until control cells were 80% confluent (3–4 days), then changed to fresh basal medium and grown for an additional 24 hrs.\nCell lines, treated with differentiation agents and control cultures, were washed with 2 mL of buffer containing: 10 mM HEPES ([…]), 5.5 mM glucose, 5.4 mM KCl, 1.3 mM CaCl2, 0.4 mM Na2HPO4, 0.44 mM KH2PO4, and either 137 mM NaCl (Buffer A) or 100 mM choline chloride (Buffer B). After a 60 min incubation in the same buffer supplemented with Na(^125I) (1.0 μCi/2 mL) and 1.0 μM NaI, cells were washed once with Buffer A, lysed with 0.1 M NaOH and gamma counted (5). A parallel set of dishes, similarly plated and treated, were used for normalization of uptake activity, using 3-(4,5-dimethylthiazol-2-yl)-2,5-diphenyltetrazolium bromide (MTT) assay (25) as an index of cell viability. Gamma counts of cells incubated in Buffer B were subtracted from counts of cells incubated in Buffer A, under corresponding conditions, to account for non-specific binding of radioiodide."}, "[2]": {"test_system": "hNIS gene regions P (promoter), L (leader), C (coding)", "experiment": "Methylation-specific PCR of hNIS gene regions in treated cell lines", "assay_type": "cell-based, human", "procedure": "as §1\nThis method utilizes PCR primer pairs to distinguish methylated from unmethylated DNA in bisulfite-modified target DNA, in which bisulfite converts unmethylated cytosines to uracil (23,24). Genomic DNAs, from normal and tumoral human thyroid tissues and cell lines, were isolated by standard techniques (21) and 1.0 μg aliquots were denatured by NaOH (10 min at 37° C.), then treated with 10 mM hydroquinone and 3.0 M sodium bisulfite (pH 5.0 under mineral oil for 16 hrs at 50° C.). Modified DNA was purified on a resin column (Qiagen) and further treated with 0.3 N NaOH for 5 min prior to ethanol precipitation. The PCR mixture contained 16.6 mM ammonium sulfate, 67 mM Tris-HCl (pH 8.8), 6.7 mM MgCl2, 10 mM β-mercaptoethanol, 1.25 mM dNTPs, 0.2 μL TaqStart antibody, 1 U AmpliTaq DNA polymerase, 10 pmoles each of sense and antisense methylation-specific primers, and […] of bisulphite-modified DNA target. Primers used for analysis of the hNIS promoter CpG island methylation were selected for cytosine-rich regions, containing CpG dinucleotides near the 3′ end of the primers, hNIS-MET-P (sense, 5′ to 3′, TTAGGTTTGGAGGCGGA GTCGC (SEQ ID NO. 7) and antisense, 5′ to 3′, ACCGACTATCTATCCCT CTCCCTAAACG) (SEQ ID NO. 8) for a 143 bp product from methylated DNA and hNIS-UNMET-P (sense, 5′ to 3′, […] GAGTTGT (SEQ ID NO. 9) and antisense, 5′ to 3′, […] CCTAAACA) (SEQ ID NO. 10) for a 151 bp product from unmethylated genomic DNA. Additional sets of primers were similarly designed to analyze further downstream elements. They were: hNIS-MET-L (sense, […] (SEQ ID NO. 11) and antisense, GACCT CCATAAAAACGAATACG) (SEQ ID NO. 12) for a 265 bp product, with hNIS-UNMET-L (sense, […] (SEQ ID NO. 13), and antisense, […]) (SEQ ID NO. 14), for a 275 bp product, hNIS-MET-C (sense, […] (SEQ ID NO. 15) and antisense, […]) (SEQ ID NO. 16) for a 242 bp product, and hNIS-UNMET-C (sense, […] (SEQ ID NO. 17), and antisense, […]) (SEQ ID NO. 18), for a 252 bp product. The amplification conditions were: Taq polymerase activation at 95° C. for 5 min, 40 cycles of: denaturation at 94° C. for 20 s, annealing at 60° C. for 30 s and polymerization at 72° C. for 30 s. MS-PCR products were resolved by agarose gel electrophoresis and visualized by ethidium bromide staining and UV transillumination."}, "[3]": {"details": "high: AzaC 1.0 μM, NaB 1.0 mM, PhAc 10 mM"}, "[4]": {"details": "low: AzaC 0.5 μM, NaB 0.5 mM, PhAc 5.0 mM"}, "[5]": {"details": "NPA'87, high: AzaC 1.0 μM, NaB 1.0 mM"}, "[6]": {"details": "KAT-5, high: AzaC 1.0 μM, PhAc 10 mM"}}}
{"smiles": "CCCC(=O)[O-].[Na+]", "note": "[NaB, sodium butyrate]", "values": [{"measurement": "Specific ^125I Uptake", "setting": "[1]; [3]", "result": "−"}, {"measurement": "Specific ^125I Uptake", "setting": "[1]; [4]", "result": "−"}, {"measurement": "iodide uptake activity", "setting": "[1]; NPA'87 cells, 1.0 mM sodium butyrate", "result": "slightly increased"}, {"measurement": "Methylation Status by Region C", "setting": "[2]; KAT-10, high: NaB 1.0 mM", "result": "+"}, {"measurement": "Methylation Status by Region L", "setting": "[2]; KAT-10, high: NaB 1.0 mM", "result": "+"}, {"measurement": "Methylation Status by Region P", "setting": "[2]; KAT-10, high: NaB 1.0 mM", "result": "−"}, {"measurement": "Methylation Status by Region C", "setting": "[2]; [5]", "result": "+"}, {"measurement": "Methylation Status by Region L", "setting": "[2]; [5]", "result": "+"}, {"measurement": "Methylation Status by Region P", "setting": "[2]; [5]", "result": "−"}, {"measurement": "effect on baseline methylation patterns in all three regions", "setting": "[2]; NPA'87 and KAT-10", "result": "failed to demonstrate effects on altering baseline methylation patterns"}]}
{"smiles": "Nc1ncn([C@@H]2O[C@H](CO)[C@@H](O)[C@H]2O)c(=O)n1", "note": "[AzaC, 5-azacytidine]", "values": [{"measurement": "Specific ^125I Uptake", "setting": "[1]; [3]", "result": "+"}, {"measurement": "Specific ^125I Uptake", "setting": "[1]; [4]", "result": "−"}, {"measurement": "increased iodide uptake", "setting": "[1]; NPA'87 cells, 1.0 M 5-azacytidine (so in the source)", "result": "over 15 fold"}, {"measurement": "methylation at the L and C regions after treatment", "setting": "[2]; KAK-1, KAT-5, KAT-10 and NPA'87 (all four cell lines)", "result": "decreased methylation"}, {"measurement": "Methylation Status by Region C", "setting": "[2]; KAK-1, high: AzaC 1.0 μM", "result": "−"}, {"measurement": "Methylation Status by Region L", "setting": "[2]; KAK-1, high: AzaC 1.0 μM", "result": "−"}, {"measurement": "Methylation Status by Region P", "setting": "[2]; KAK-1, high: AzaC 1.0 μM", "result": "−"}, {"measurement": "Methylation Status by Region C", "setting": "[2]; KAK-1, low: AzaC 0.5 μM", "result": "−"}, {"measurement": "Methylation Status by Region L", "setting": "[2]; KAK-1, low: AzaC 0.5 μM", "result": "−"}, {"measurement": "Methylation Status by Region P", "setting": "[2]; KAK-1, low: AzaC 0.5 μM", "result": "−"}, {"measurement": "Methylation Status by Region C", "setting": "[2]; [6]", "result": "−"}, {"measurement": "Methylation Status by Region L", "setting": "[2]; [6]", "result": "−"}, {"measurement": "Methylation Status by Region P", "setting": "[2]; [6]", "result": "−"}, {"measurement": "susceptibility to demethylation effects in the C region", "setting": "[2]; KAT-5 and KAT-10 cells, C region compared with L region", "result": "less than that of the L region"}, {"measurement": "Methylation Status by Region C", "setting": "[2]; KAT-10, low: AzaC 0.5 μM", "result": "−"}, {"measurement": "Methylation Status by Region L", "setting": "[2]; KAT-10, low: AzaC 0.5 μM", "result": "−"}, {"measurement": "Methylation Status by Region P", "setting": "[2]; KAT-10, low: AzaC 0.5 μM", "result": "−"}, {"measurement": "effect on methylation status of the P region", "setting": "[2]; MRO87, WRO82 and KAT-7", "result": "did not affect the baseline demethylated status"}, {"measurement": "demethylation of region C in response to treatment", "setting": "[2]; MRO87, WRO82 and KAT-7, except minimal unmethylated product for WRO82", "result": "did not become demethylated"}, {"measurement": "Methylation Status by Region C", "setting": "[2]; [5]", "result": "−"}, {"measurement": "Methylation Status by Region L", "setting": "[2]; [5]", "result": "−"}, {"measurement": "Methylation Status by Region P", "setting": "[2]; [5]", "result": "−"}]}
